Test results from patent publication US12415830B2, “Steroid compound, and use thereof and preparation method therefor” (Chengdu Kanghong Pharmaceutical Co Ltd, priority 2019, dated 2025).

Columns and labels:
GABAA1 (α1β2γ2) receptor = molecular target: T1, GABAA1 (α1β2γ2) receptor (Homo sapiens, UniProt P14867+P47870); assay: Patch-clamp electrophysiology on recombinant GABAA1 receptor in HEK293 cells, with 3 μM GABA; format: cell-based; conditions: for Emax at 0.1 µM / Emax at 1 µM / Emax: HEK293; for Emax at 0.1 µM: 0.1 μM compound together with 3 μmol GABA; for Emax at 0.1 µM / Emax at 1 µM: read-out: potency: ratio of the peak current on the GABAA1 receptor to the peak current in 100 μmol GABA; for Emax at 1 µM: 1 μM compound together with 3 μmol GABA; for Emax / EC50: together with 3 μmol GABA; for Emax: relative to peak current in 100 μmol GABA
T1 construct: expressed in transfected cells
T1 sequence (P14867 28-456): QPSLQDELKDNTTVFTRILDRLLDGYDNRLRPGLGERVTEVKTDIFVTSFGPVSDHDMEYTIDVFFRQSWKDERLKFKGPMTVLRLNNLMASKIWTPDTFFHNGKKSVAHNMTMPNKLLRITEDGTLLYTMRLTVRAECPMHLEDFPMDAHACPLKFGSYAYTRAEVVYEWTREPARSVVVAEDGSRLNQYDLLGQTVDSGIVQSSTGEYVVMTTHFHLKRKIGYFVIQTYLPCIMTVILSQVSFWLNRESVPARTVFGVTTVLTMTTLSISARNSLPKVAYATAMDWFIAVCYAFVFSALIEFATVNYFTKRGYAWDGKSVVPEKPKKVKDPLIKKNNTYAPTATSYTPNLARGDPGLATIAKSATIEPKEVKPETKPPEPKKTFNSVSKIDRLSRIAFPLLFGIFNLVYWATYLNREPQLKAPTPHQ
T1 sequence (P47870 26-512): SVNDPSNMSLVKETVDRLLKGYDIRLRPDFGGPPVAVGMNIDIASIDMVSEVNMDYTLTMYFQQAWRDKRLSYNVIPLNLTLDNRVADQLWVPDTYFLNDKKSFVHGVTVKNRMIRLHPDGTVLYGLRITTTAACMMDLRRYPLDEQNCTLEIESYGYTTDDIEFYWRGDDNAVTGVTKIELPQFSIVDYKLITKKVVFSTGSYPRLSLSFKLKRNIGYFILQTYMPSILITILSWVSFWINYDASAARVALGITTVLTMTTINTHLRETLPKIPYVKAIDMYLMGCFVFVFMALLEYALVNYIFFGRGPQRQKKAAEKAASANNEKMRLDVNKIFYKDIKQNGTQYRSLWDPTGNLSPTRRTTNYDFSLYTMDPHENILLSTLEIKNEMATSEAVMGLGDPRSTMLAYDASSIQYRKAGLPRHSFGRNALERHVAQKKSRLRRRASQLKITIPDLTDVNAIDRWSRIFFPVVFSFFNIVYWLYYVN
T1 sequence (P18507 40-475 partner): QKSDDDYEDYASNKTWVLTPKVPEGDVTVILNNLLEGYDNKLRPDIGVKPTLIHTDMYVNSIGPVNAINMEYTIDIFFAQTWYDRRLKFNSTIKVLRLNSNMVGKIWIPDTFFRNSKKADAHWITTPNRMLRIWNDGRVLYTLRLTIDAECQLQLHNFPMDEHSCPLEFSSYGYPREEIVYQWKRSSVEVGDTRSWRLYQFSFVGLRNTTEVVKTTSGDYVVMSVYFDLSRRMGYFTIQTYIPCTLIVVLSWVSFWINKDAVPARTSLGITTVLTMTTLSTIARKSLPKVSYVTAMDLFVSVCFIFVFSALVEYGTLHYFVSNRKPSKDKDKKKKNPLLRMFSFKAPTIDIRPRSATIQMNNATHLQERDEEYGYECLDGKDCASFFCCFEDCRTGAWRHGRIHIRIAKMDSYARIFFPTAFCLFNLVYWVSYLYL
Protocol: The present invention applies the two subunits of the recombinant GABAA receptor: α1β2γ2 and α4β3δ to evaluate the potency of the exemplary compounds in vitro by patch-clamp electrophysiology.
Extracellular fluid: 140 mM NaCl, 5 mM CsCl, 2 mM CaCl2·2H2O, 1 mM MgCl2·6H2O, 5 mM HEPES, 10 mM D-Glucose, pH=7.4 (NaOH).
Intracellular fluid: 130 mM CsCl, 0.1 mM CaCl2·H2O, 2 mM MgCl2·6H2O, 1.1 mM EGTA, 5 mM Na2-ATP, 10 mM HEPES, pH=7.2 (CsOH).
The HEK293 cells line stably expressing GABAA (α1β2γ2) receptors was cultured in Dulbecco's Modified Eagle Medium (DMEM) supplemented with 10% fetal bovine serum, 800 μg/mL G418, 200 μg/mL Hygromycin B and 100 μg/mL Zeocin. Cells were grown in a humidified incubator at 37° C. with 5% carbon dioxide.
Before manual patch clamp test, the cells were detached using 0.25%-Trypsin-EDTA solution. Then 8×10^3 cells were plated onto coverslips, and cultured in a 24-well plate (final medium volume: 500 μL) and tested after 18 hours by patch clamp.
Glass pipette (BF 150-86-10, Sutter Instruments) was pulled using a micropipette puller (P97, Sutter Instruments). The glass pipette was manipulated using a micro-manipulator (MP285, Sutter Instruments) under the microscope (IX71, Olympus). After touching the cell, a slight suction was applied to achieve high seal resistance (GQ). Fast capacitance (in pF) compensation was made after achieving high seal, and the membrane was broken. Cell capacitance (in pF) compensation was made from whole-cell capacitance compensation after the whole cell mode was achieved. No leak subtraction was made.
The test and control solutions flowed into a recording chamber mounted on the stage of an inverted microscope via a gravity-fed solution delivery system. During the experiment, solutions were withdrawn from the recording chamber by vacuum aspiration. Each concentration was tested at multiple times. All tests were performed at room temperature.
Whole cell model recorded GABAA1 receptors current experimental protocol was indicated as follows: When sealing, cell was at a holding potential of −70 mV, with gap-free mode to record the peak current. The cell would be applied with 3 μM GABA to active current. After the test articles application for 30 s, each concentration of test articles was applied with 3 μM GABA followed by 2 minutes washout using extracellular solution. Finally, 100 μM GABA was used as a positive control. The data were collected by EPC-10 amplifier and stored in PatchMaster (HEKA) software.
The following criteria are used to determine whether the data is acceptable: • (1) Electrode resistance <5MΩ • (2) Seal resistance >1GΩ • (3) The start of access resistance <15 MΩ • (4) The end of access resistance <15 MΩ • (5) No obvious spontaneous current decay. • (6) No obvious current leakage when the membrane potential is-70 mv. 56.6 Data Analysis
In the detection of GABAA1, the currents of 3 μM GABA and different concentrations of test compounds were respectively normalized to the current of 100 μM GABA
[formula] and then the activation rate corresponding to each concentration was calculated.
[formula] and then the activation rate corresponding to each concentration was calculated. Means, Standard Deviation and Standard Error were calculated for each test group. EC50 value was calculated using nonlinear regression: Y=Bottom+(Top−Bottom)/(1+10^((Log EC50−X)×HillSlope))
To fit data to the concentration-response, EC50 was the concentration giving a half-maximum effect and Hillslope was the Hill coefficient. Curve-fitting and EC50 calculations were performed using Graphpad5.0 software.
Emax is defined as the ratio of the peak current generated on the GABAA1 receptor to the peak current generated only in 100 μmol of GABA and the ratio is multiplied by 100%. The peak current generated on the GABAA1 receptor is that the exemplary compounds act on the GABAA1 receptor together with 3 μmol GABA.

mice = assay: Observation of side effects (gait, mobility, prone behavior) during administration in the elevated plus maze experiment; format: in vivo; parameters: key to Gait, Level / mobility, Level / prone behavior, Level: “+” indicates severity; ++: “+” indicates severity; +++: three “+” are the most severe, with time to resume normal action >60 minutes; conditions: for Gait, Number / mobility, Number / prone behavior, Number: 10 mice per group; for side effects compared to the positive drug: 3 mg/kg, mice
Protocol: Since the drugs which are acting on GABA (A) receptor can produce behavioral anesthesia (side effects), side effects of mice during administration were observed during the course of the elevated plus maze experiment. […] “+” indicates severity, three “+” are the most severe, with time to resume normal action >60 minutes.

Row | Structure (SMILES) | Emax at 0.1 µM (GABAA1 (α1β2γ2) receptor) | Emax at 1 µM (GABAA1 (α1β2γ2) receptor) | Emax (GABAA1 (α1β2γ2) receptor) | Gait, Level (mice; 3mg/kg, the first day) | mobility, Level (mice; 3mg/kg, the first day) | Gait, Number (mice; 3mg/kg, the first day) | mobility, Number (mice; 3mg/kg, the first day) | prone behavior, Number (mice; 3mg/kg, the first day) | Gait, Level (mice; 3mg/kg, the forth day) | mobility, Level (mice; 3mg/kg, the forth day) | Gait, Number (mice; 3mg/kg, the forth day) | mobility, Number (mice; 3mg/kg, the forth day) | prone behavior, Number (mice; 3mg/kg, the forth day) | Gait, Number (mice; 3mg/kg, the second day) | mobility, Number (mice; 3mg/kg, the second day) | prone behavior, Number (mice; 3mg/kg, the second day) | Gait, Level (mice; 3mg/kg, the third day) | Gait, Number (mice; 3mg/kg, the third day) | mobility, Number (mice; 3mg/kg, the third day) | prone behavior, Number (mice; 3mg/kg, the third day) | further results
1 | C[C@@]1(O)CC[C@H]2[C@H](CC[C@@H]3[C@@H]2CC[C@]2(C)[C@@H](C(=O)Cn4cc(C#N)cn4)CC[C@@H]32)C1 [The control, reference compound] | 0 to 20% | 20 to 40% | 84.2% | ++ | +++ (three “+” are the most severe, with time to resume normal action >60 minutes) | 7 | 3 | 2 | + | + | 9 | 5 | 0 | 6 | 0 | 0 | + | 8 | 4 | 0 | prone behavior, Level (mice; 3mg/kg, the first day): +; Gait, Level (mice; 3mg/kg, the second day): ++; mobility, Level (mice; 3mg/kg, the third day): ++
2 | C[C@@]1(O)CC[C@@]2(C)[C@@H](CC[C@@H]3[C@@H]2CC[C@]2(C)[C@@H](C(=O)Cn4ncnn4)CCC[C@@H]32)C1 [KH022] | 0 to 20% | 40 to 60% | 93.1% | + | ++ | 3 | 1 | 0 | + | + | 3 | 1 | 0 | 2 | 0 | 0 | + | 1 | 0 | 0 | EC50 (GABAA1 (α1β2γ2) receptor): 821 nM; side effects compared to the positive drug (mice): less side effects; Gait, Level (mice; 3mg/kg, the second day): +
3 | C[C@]12CC[C@@H](O)C[C@@H]1CC[C@@H]1[C@@H]2CC[C@]2(C)[C@@H](C(=O)Cn3ncnn3)CCC[C@@H]12 [KH004] | 20 to 40% | > 80% | 106% | – | – | 0 | 0 | 0 | – | – | 0 | 0 | 0 | 0 | 0 | 0 | + | 1 | 0 | 0 | EC50 (GABAA1 (α1β2γ2) receptor): 404 nM; side effects compared to the positive drug (mice): less side effects
